The values below come from PubChem BioAssay (NCI).

Where “and” joins values, the source holds several entries; their conditions need not be identical. Equal entries are not always repeated.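 Five concentrations, 48 hours, 96-well plates. The concentration for 50% growth inhibition is given as GI50. TGI marks complete inhibition of growth.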

Usually GI50 stands for the concentration at which growth is held to half of that of the control. In general, TGI refers to the concentration at which net growth stops. A higher TGI goes with less potent growth arrest.

Test systems include CCRF-CEM leukemia; HCT-116 colon; HOP-62 NSCLC; KM12 colon; KM20L2 colon; NCI-H226 lung; NCI-H522 lung; SK-MEL-28 melanoma; SN12C renal; SNB-78 CNS.
Common to all, as to assay: DTP human tumour cell line panel, 48 h

For `CCc1nc(N)nc(N)c1-c1ccc(Cl)c(N=[N+]=[N-])c1`, the GI50 in the assay with CCRF-CEM leukemia is 0.898 µM and 3.89 µM. Also, the TGI in the assay on CCRF-CEM leukemia is 31.9 µM and > 71.9 µM; in the assay on HCT-116 colon, > 80.6 µM and 65.1 µM; in the assay on HOP-62 NSCLC, > 59.8 µM and 62.8 µM; in the assay with KM12 colon it was 73.1 µM and > 100 µM; in the assay on KM20L2 colon, greater than 100 µM; in the assay with NCI-H226 lung, greater than 100 µM. Moreover, the TGI with NCI-H522 lung was 42.5 µM and 29.4 µM; in the assay with SK-MEL-28 melanoma it was > 87.7 µM and 60.5 µM; in the assay on SN12C renal, greater than 100 µM; in the assay on SNB-78 CNS, greater than 100 µM.

Regarding `Cc1ccc(NC(=O)CCc2n[nH]c(=S)o2)cc1`, the TGI in the assay on CCRF-CEM leukemia, in the assay on HCT-116 colon, in the assay on HOP-62 NSCLC, with KM12 colon, in the assay with KM20L2 colon and in the assay on NCI-H226 lung was greater than 100 µM in each case. Moreover, the TGI in the assay on NCI-H522 lung, with SK-MEL-28 melanoma, in the assay on SN12C renal and in the assay with SNB-78 CNS was greater than 100 µM each time.

On to `O=C(CCCN1CCC(C(O)c2ccc(F)cc2)CC1)c1ccc(F)cc1` (stereo unspecified), for which the TGI with CCRF-CEM leukemia amounted to 228 µM; with HCT-116 colon it was 116 µM; with HOP-62 NSCLC, 125 µM; with KM12 colon, 116 µM; in the assay on KM20L2 colon it was 96 µM; in the assay with NCI-H226 lung, 111 µM. The TGI was found to be 139 µM with NCI-H522 lung, 118 µM with SK-MEL-28 melanoma, 141 µM in the assay on SN12C renal and 123 µM in the assay with SNB-78 CNS.

With `CC(=O)c1ccc(NC(=O)COC(=O)c2cccc3c(=O)c4ccccc4[nH]c23)cc1`, the TGI with CCRF-CEM leukemia was greater than 100 µM; in the assay with HCT-116 colon, 42.8 µM; in the assay on HOP-62 NSCLC it was 90.7 µM; in the assay on KM12 colon it was greater than 100 µM; in the assay on KM20L2 colon it was greater than 100 µM; with NCI-H226 lung it was 46.2 µM. Further, the TGI with NCI-H522 lung, in the assay on SK-MEL-28 melanoma, in the assay with SN12C renal and in the assay on SNB-78 CNS was greater than 100 µM each time.

As for `COc1cccc(SSc2cccc(OC)c2C(=O)O)c1C(=O)O`, the TGI in the assay on CCRF-CEM leukemia, in the assay with HCT-116 colon, in the assay on HOP-62 NSCLC, in the assay with KM12 colon, in the assay with KM20L2 colon and in the assay with NCI-H226 lung was greater than 100 µM in each case. For the same compound, the TGI in the assay on NCI-H522 lung, with SK-MEL-28 melanoma, in the assay on SN12C renal and in the assay on SNB-78 CNS was greater than 100 µM throughout.

Take `CC(=O)OC1=CC2(OC(C)=O)CC(C)(C)C1C1C(=O)C=CC(=O)C12` (stereo unspecified): the TGI in the assay with CCRF-CEM leukemia was greater than 100 µM; with HCT-116 colon, greater than 89.4 µM; in the assay with HOP-62 NSCLC it was greater than 100 µM; in the assay on KM12 colon it was greater than 100 µM; in the assay with KM20L2 colon it was greater than 100 µM; with NCI-H226 lung, greater than 100 µM. In addition, the TGI in the assay on NCI-H522 lung is greater than 52.4 µM; in the assay with SK-MEL-28 melanoma it was greater than 100 µM; in the assay with SN12C renal it was greater than 80.5 µM; with SNB-78 CNS it was greater than 100 µM.

As to `CC1=Nc2c([nH]c(=S)[nH]c2=O)NC(c2c(Cl)cccc2Cl)C1` (stereo unspecified), the concentration for total growth inhibition (TGI) turned out to be 2.18 µM with CCRF-CEM leukemia; 1.59 µM in the assay on HCT-116 colon; 13.6 µM with HOP-62 NSCLC; 4.51 µM with KM12 colon; 13.6 µM in the assay on KM20L2 colon; 15 µM with NCI-H226 lung. In addition, the TGI in the assay on NCI-H522 lung was 7.33 µM; in the assay on SK-MEL-28 melanoma, 6.26 µM; with SN12C renal it was 3.09 µM; in the assay on SNB-78 CNS, 25 µM.

Consider `CC1OC(CC(=O)O)CC2=C1C(=O)c1c(O)cccc1C2=O` (stereo unspecified), for which the TGI in the assay on CCRF-CEM leukemia turned out to be 0.0957 µM; in the assay with HCT-116 colon it was 0.243 µM; with HOP-62 NSCLC, 2.94 µM; in the assay with KM12 colon, 3.49 µM; in the assay with KM20L2 colon, 1.2 µM; in the assay on NCI-H226 lung, 3.13 µM. Besides, the TGI in the assay on NCI-H522 lung was less than 0.0251 µM; in the assay on SK-MEL-28 melanoma, 0.2 µM; in the assay on SN12C renal, 0.716 µM; in the assay with SNB-78 CNS, 0.383 µM.

For the compound `CCCCCCCCCCCc1c(O)c(=O)c2c(oc3c(=O)c(CCCCCCCCCCC)c(O)c(=O)c3n2-c2ccc(N(C)C)cc2)c1=O`, the TGI worked out at 60.5 µM in the assay on CCRF-CEM leukemia; 36.6 µM in the assay on HCT-116 colon; 45.9 µM in the assay with HOP-62 NSCLC; 26.8 µM in the assay on KM12 colon; 38.5 µM in the assay with KM20L2 colon; 36.3 µM in the assay with NCI-H226 lung. In addition, the TGI in the assay on NCI-H522 lung is greater than 100 µM; in the assay on SK-MEL-28 melanoma it was 40 µM; with SN12C renal, 36.8 µM; in the assay on SNB-78 CNS, greater than 100 µM.

Turning to `C=C(C(=C)P(=S)(C(C)C)C(C)C)P(=S)(C(C)C)C(C)C`, the TGI with CCRF-CEM leukemia, in the assay on HCT-116 colon, in the assay on HOP-62 NSCLC, with KM12 colon, in the assay with KM20L2 colon and with NCI-H226 lung was greater than 100 µM throughout. The TGI in the assay with NCI-H522 lung, in the assay with SK-MEL-28 melanoma, in the assay on SN12C renal and with SNB-78 CNS was greater than 100 µM in each case.

With `CC(=O)NC(C=O)C(O[C@H](C)C(=O)NC(C)C(=O)NC(CCC(N)=O)C(=O)OCc1ccccc1)C(O)C(O)COC(=O)CCNc1c2ccccc2nc2cccc([N+](=O)[O-])c12` (stereo partly specified), the TGI is 34.6 µM in the assay on CCRF-CEM leukemia; 2.69 µM in the assay with HCT-116 colon; 10.2 µM in the assay on HOP-62 NSCLC; 3.75 µM in the assay with KM12 colon; 5.58 µM in the assay on KM20L2 colon; 6.89 µM with NCI-H226 lung. In addition, the TGI in the assay on NCI-H522 lung turned out to be 4.49 µM; in the assay with SK-MEL-28 melanoma it was 11.6 µM; in the assay with SN12C renal, 5.62 µM; in the assay with SNB-78 CNS, 14.4 µM.

Turning to `CC(=O)c1ccc(NC(=O)C(=O)C(C#N)CC(C)(C)C=O)cc1` (stereo unspecified), the TGI with CCRF-CEM leukemia, in the assay on HCT-116 colon, in the assay on HOP-62 NSCLC, with KM12 colon, with KM20L2 colon and in the assay with NCI-H226 lung was greater than 100 µM throughout. For the same compound, the TGI in the assay with NCI-H522 lung, in the assay on SK-MEL-28 melanoma, in the assay with SN12C renal and with SNB-78 CNS was greater than 100 µM each time.
